{"source": "ChEMBL document CHEMBL1147620", "about": "“Estrogen receptor ligands. Part 1: The discovery of flavanoids with subtype selectivity” (Bioorg Med Chem Lett, 2004)", "key": {"[1]": {"target": "T1, Estrogen receptor (Homo sapiens, UniProt P03372)", "T1 sequence (P03372 whole entry)": "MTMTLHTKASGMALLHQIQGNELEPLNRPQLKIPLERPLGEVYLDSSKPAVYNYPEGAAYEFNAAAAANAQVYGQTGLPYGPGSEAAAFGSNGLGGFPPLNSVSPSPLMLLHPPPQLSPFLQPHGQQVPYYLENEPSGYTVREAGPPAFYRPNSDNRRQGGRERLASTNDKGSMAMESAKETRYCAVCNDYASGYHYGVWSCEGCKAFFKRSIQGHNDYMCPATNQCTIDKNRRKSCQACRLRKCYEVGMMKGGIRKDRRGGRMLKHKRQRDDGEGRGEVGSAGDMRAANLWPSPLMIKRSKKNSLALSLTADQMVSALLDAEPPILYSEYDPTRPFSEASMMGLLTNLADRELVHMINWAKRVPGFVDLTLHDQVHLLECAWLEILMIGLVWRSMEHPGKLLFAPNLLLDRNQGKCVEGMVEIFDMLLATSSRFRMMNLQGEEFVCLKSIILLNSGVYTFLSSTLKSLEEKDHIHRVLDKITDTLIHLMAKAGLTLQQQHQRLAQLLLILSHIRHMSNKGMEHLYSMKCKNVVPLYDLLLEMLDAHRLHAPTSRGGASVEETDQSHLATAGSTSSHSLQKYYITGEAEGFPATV", "description": "Binding affinity against human estrogen receptor alpha in competitive binding assay"}, "[2]": {"target": "Estrogen receptor beta (Homo sapiens, UniProt Q92731)", "sequence (Q92731 whole entry)": "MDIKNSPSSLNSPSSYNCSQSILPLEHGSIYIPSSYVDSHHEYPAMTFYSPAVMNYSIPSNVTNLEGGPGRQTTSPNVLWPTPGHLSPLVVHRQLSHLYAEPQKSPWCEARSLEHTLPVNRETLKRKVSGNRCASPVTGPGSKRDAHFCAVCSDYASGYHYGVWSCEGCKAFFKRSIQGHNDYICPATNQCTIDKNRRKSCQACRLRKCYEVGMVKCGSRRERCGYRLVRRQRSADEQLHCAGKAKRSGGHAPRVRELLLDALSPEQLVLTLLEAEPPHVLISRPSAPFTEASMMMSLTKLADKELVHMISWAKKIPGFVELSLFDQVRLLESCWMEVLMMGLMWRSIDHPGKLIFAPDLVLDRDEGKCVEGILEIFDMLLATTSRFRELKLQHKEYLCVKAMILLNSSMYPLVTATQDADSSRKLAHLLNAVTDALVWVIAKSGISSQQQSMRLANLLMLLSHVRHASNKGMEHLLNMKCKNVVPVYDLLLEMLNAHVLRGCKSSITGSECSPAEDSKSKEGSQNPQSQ", "description": "Binding affinity against human estrogen receptor beta (ER beta) in competitive binding assay"}}, "note": "pIC50: −log10 of the molar value."}
{"smiles": "C[C@@H]1C(=O)c2ccc(O)cc2O[C@@H]1c1ccc(OCCN2CCCCC2)cc1", "values": [{"measurement": "pIC50", "setting": "[1]", "result": 5.45}, {"measurement": "pIC50", "setting": "[2]", "result": 5.25}]}
{"smiles": "CC(C)[C@@H]1C(=O)c2ccc(O)cc2O[C@@H]1c1ccc(OCCN2CCCCC2)cc1", "values": [{"measurement": "pIC50", "setting": "[1]", "result": 7.05}, {"measurement": "pIC50", "setting": "[2]", "result": 5.92}]}
{"smiles": "O=C1c2ccc(O)cc2O[C@H](c2ccc(OCCN3CCCCC3)cc2)[C@H]1c1ccc(O)cc1", "values": [{"measurement": "pIC50", "setting": "[1]", "result": 7.31}, {"measurement": "pIC50", "setting": "[2]", "result": 5.71}]}
{"smiles": "O=C1c2ccccc2O[C@H](c2ccc(OCCN3CCCCC3)cc2)[C@@H]1c1ccc(O)cc1", "values": [{"measurement": "pIC50", "setting": "[1]", "result": 6.75}, {"measurement": "pIC50", "setting": "[2]", "result": 6.29}]}
{"smiles": "O=C1c2ccc(O)cc2O[C@H](c2ccc(OCCN3CCCCC3)cc2)[C@@H]1c1ccc(O)cc1", "values": [{"measurement": "pIC50", "setting": "[1]", "result": 7.51}, {"measurement": "pIC50", "setting": "[2]", "result": 5.69}]}
{"smiles": "CCCc1cc(O)cc2c1C(=O)[C@@H](c1ccc(O)cc1)[C@@H](c1ccc(OCCN3CCCCC3)cc1)O2", "values": [{"measurement": "pIC50", "setting": "[1]", "result": 6.19}, {"measurement": "pIC50", "setting": "[2]", "result": 6.68}]}
{"smiles": "Oc1ccc([C@@H]2Cc3ccc(O)cc3O[C@@H]2c2ccc(OCCN3CCCCC3)cc2)cc1", "values": [{"measurement": "pIC50", "setting": "[1]", "result": 8.17}, {"measurement": "pIC50", "setting": "[2]", "result": 8.05}]}
{"smiles": "O=C1c2ccc(O)cc2O[C@H](c2ccc(OCCN3CCCCC3)cc2)[C@@H]1c1ccccc1", "values": [{"measurement": "pIC50", "setting": "[1]", "result": 6.27}, {"measurement": "pIC50", "setting": "[2]", "result": 5.00}]}
{"smiles": "C[C@@H]1C(=O)c2c(O)cc(O)cc2O[C@@H]1c1ccc(OCCN2CCCCC2)cc1", "values": [{"measurement": "pIC50", "setting": "[1]", "result": 6.26}, {"measurement": "pIC50", "setting": "[2]", "result": 5.92}]}
{"smiles": "Cc1cc(O)cc2c1C(=O)[C@@H](c1ccc(O)cc1)[C@@H](c1ccc(OCCN3CCCCC3)cc1)O2", "values": [{"measurement": "pIC50", "setting": "[1]", "result": 7.85}, {"measurement": "pIC50", "setting": "[2]", "result": 6.26}]}
{"smiles": "O=C1c2ccc(O)cc2O[C@H](c2ccc(O)cc2)[C@@H]1c1ccc(O)cc1", "values": [{"measurement": "pIC50", "setting": "[1]", "result": 6.31}, {"measurement": "pIC50", "setting": "[2]", "result": 6.22}]}
{"smiles": "CC(C)[C@H]1C(=O)c2ccc(O)cc2O[C@@H]1c1ccc(OCCN2CCCCC2)cc1", "values": [{"measurement": "pIC50", "setting": "[1]", "result": 6.96}, {"measurement": "pIC50", "setting": "[2]", "result": 6.03}]}
{"smiles": "COc1cc(O)ccc1[C@@H]1C(=O)c2ccc(O)cc2O[C@@H]1c1ccc(OCCN2CCCCC2)cc1", "values": [{"measurement": "pIC50", "setting": "[1]", "result": 6.83}, {"measurement": "pIC50", "setting": "[2]", "result": 5.87}]}
{"smiles": "COc1cc([C@@H]2C(=O)c3ccc(O)cc3O[C@@H]2c2ccc(OCCN3CCCCC3)cc2)ccc1O", "values": [{"measurement": "pIC50", "setting": "[1]", "result": 6.38}, {"measurement": "pIC50", "setting": "[2]", "result": "< 5.00"}]}
{"smiles": "Cc1cc([C@@H]2C(=O)c3ccc(O)cc3O[C@@H]2c2ccc(OCCN3CCCCC3)cc2)cc(C)c1O", "values": [{"measurement": "pIC50", "setting": "[1]", "result": 5.98}, {"measurement": "pIC50", "setting": "[2]", "result": "< 5.00"}]}
{"smiles": "O=C1c2c(F)cc(O)cc2O[C@H](c2ccc(OCCN3CCCCC3)cc2)[C@@H]1c1ccc(O)cc1", "values": [{"measurement": "pIC50", "setting": "[1]", "result": 6.98}, {"measurement": "pIC50", "setting": "[2]", "result": 5.27}]}
{"smiles": "O/N=C1\\c2ccc(O)cc2O[C@H](c2ccc(OCCN3CCCCC3)cc2)[C@@H]1c1ccc(O)cc1", "values": [{"measurement": "pIC50", "setting": "[1]", "result": 5.98}, {"measurement": "pIC50", "setting": "[2]", "result": 5.06}]}
{"smiles": "CCc1cc(O)cc2c1C(=O)[C@@H](c1ccc(O)cc1)[C@@H](c1ccc(OCCN3CCCCC3)cc1)O2", "values": [{"measurement": "pIC50", "setting": "[1]", "result": 7.17}, {"measurement": "pIC50", "setting": "[2]", "result": 6.82}]}
{"smiles": "Oc1ccc([C@H]2[C@@H](c3ccc(OCCN4CCCCC4)cc3)Oc3cc(O)ccc3[C@@H]2O)cc1", "values": [{"measurement": "pIC50", "setting": "[1]", "result": 6.03}, {"measurement": "pIC50", "setting": "[2]", "result": 5.15}]}
{"smiles": "CCCCCc1cc(O)cc2c1C(=O)[C@@H](c1ccc(O)cc1)[C@@H](c1ccc(OCCN3CCCCC3)cc1)O2", "values": [{"measurement": "pIC50", "setting": "[1]", "result": 7.15}, {"measurement": "pIC50", "setting": "[2]", "result": 6.34}]}
{"smiles": "O=C1c2c(Cl)cc(O)cc2O[C@H](c2ccc(OCCN3CCCCC3)cc2)[C@@H]1c1ccc(O)cc1", "values": [{"measurement": "pIC50", "setting": "[1]", "result": 7.24}, {"measurement": "pIC50", "setting": "[2]", "result": 5.90}]}
{"smiles": "C[C@H]1C(=O)c2ccc(O)cc2O[C@@H]1c1ccc(OCCN2CCCCC2)cc1", "values": [{"measurement": "pIC50", "setting": "[1]", "result": 5.85}, {"measurement": "pIC50", "setting": "[2]", "result": "< 5.00"}]}
